Data on two substances can be found in patent US6723702B2, “Use of relaxin treat diseases related to vasoconstriction” (RAS Medical, Inc., priority 2000, dated 2004).

The test system of one data set is conscious rats. Briefly: Acute infusion of ANG II during chronic infusion of purified porcine RLX. In kind it is in vivo, rat. The note with it: for ERPF / ERVR / GFR / MAP: RLX 4 μg/h s.c. day 5. Here is the method: At least 7 days after the implantation of vascular and bladder catheters, osmotic minipumps containing either porcine RLX (4 μg/hour) or vehicle (Ringer's solution) were implanted in intact, female rats (n=7 and 6 rats, respectively). Renal function and MAP were measured on day 5 of relaxin infusion (three 30-minute urine and midpoint blood collections). Next, an infusion of L-NAME (2 μg/minute, a substrate competitive inhibitor of NO synthase) was administered intravenously (i.v.) by infusion pump (Model 200, KD Scientific, Boston, Mass.). Four 1-hour urine collections with midpoint blood samples were collected for the assessment of GFR, ERPF, and ERVR during the L-NAME administration. Identical procedures were performed on additional animals chronically administered porcine RLX (n=5) or vehicle (n=5), except that ANG II (3 ng/minute) was infused rather than L-NAME. Finally, another four, age-matched control rats were administered Ringer's solution instead of either L-NAME or ANG II on day 5 of porcine RLX infusion.
To minimize the possibility that the convergence of renal function in the relaxin and vehicle infused rats elicited by L-NAME was merely a consequence of nonspecific renal vasoconstriction, the experimental paradigm was repeated using another vasoconstrictor, ANG II. Values are provided as mean±SEM. Relaxin, RLX; Angiotensin II, ANG II. ANG II was infused at 3 ng/min i.v., and RLX at 4 μg/h by osmotic minipump s.c. There were five rats each in the RLX and vehicle groups. *p<0.05 vs baseline, Hp<0.05 RLX vs vehicle.

Data set [1] relates to rat aortic endothelial cells. Briefly: 3H-thymidine uptake, rat endothelial cells. In kind it is cell-based. The note with it: serum-free medium. On the procedure: Endothelial cells were derived from explant cultures of human neonatal foreskin and rat aorta. Primary human endothelial cells from umbilical vein, aorta, and lung were purchased from Clonetics-BioWhittaker Corporation (San Diego, Calif.) and cultured according to vendor instructions. ^3H-thymidine uptake was performed, as previously described, in serum-free medium. Unemori et al. (1994) Exp. Cell Res. 21:166-171.
Relaxin was then assayed for the ability to induce proliferation of endothelial cells directly. Relaxin's potential mitogenic effect was tested on human primary umbilical vein, aortic, foreskin, and pulmonary endothelial cells, as well as rat aortic endothelial cells. […] Alterations in other aspects of endothelial cell phenotype that are believed to correlate with angiogenesis were also tested. Relaxin had no effect on collagen expression, judged by SDS-PAGE of ^3H-proline-labeled cellular proteins; or metalloproteinase or tissue inhibitor of metalloproteinase-1 secretion, assessed by gelatin zymography. […] Therefore, relaxin had no apparent effect directly on endothelial cells.

For a further data set, the system named is db/db mice. Briefly: Full thickness wound healing in db/db mice. The format is in vivo, mouse. Here is the method: To determine whether rhRlx would improve healing in this model of impaired healing, standardized full thickness (1.5 cm×1.5 cm) wounds were made on the back of db/db mice (Jackson Laboratories, Bar Harbor, Me.). Mice were treated continuously for 21 days with rhRlx via a subcutaneously implanted Alzet pump at a dose of either 0.1 mg/kg/day or 0.2 mg/kg/day. Wound areas were measured in the course of the study. Healing is presented as wound area on day 14 relative to the original size of the wound on day 0 and is calculated as: % of original wound area=[Area on day 14/area on day 0]×100. […] Wound closure was expressed as “% of original wound area.” There were 8-20 animals per group. Wound closure was 91.4% in control group vs. 64% in the relaxin-treated group (p<0.05 by Student-Newman-Kuels test). The differences in the extent of wound healing were small among vehicle control and low dose of rhRlx treatment as well as PDGF (5 μg/wound/day for 5 days) treated mice.
At day 21-post surgery, the wounds were also excised and fixed in formalin prior to paraffin embedding. Sections from the middle of the wound were stained with Masson's trichrome and evaluated by two investigators. […] Inflammatory cell accumulation was present at the wound edges.
Neovascularization is a key component of granulation tissue formation. New blood vessel formation is stimulated by a variety of growth factors including bFGF, and VEGF. […] Immunohistochemical staining of the midsection of full thickness wounds using polyclonal antibody to von Willebrand factor VIII-related antigen was used to identify new blood vessels in the wounds.

Data set [2] is described as follows: Relaxin ELISA in serum (Example 5). In kind it is in vivo, rat. The note with it: day 10. The source says:
The pulmonary artery trunk, right and left extrapulmonary branches were removed en bloc, cleaned of surrounding tissue, and weighed. The left lung was and excised and the entire hilar artery dissected from parenchyma and weighed (Tozzi et al. (1994) Am. J. Respir. Crit. Care Med. 149:1316-1326). Segments were hydrolyzed, and total hydroxyproline and protein determined (Poiani et al. (1990) Circ. Res. 66:968-978). Approximately 3 cc of whole blood was centrifuged, serum aspirated, and sample frozen at −20° C. for determination of rRlx levels by ELISA assay.
Levels of relaxin in serum were measured in a quantitative sandwich immunoassay, as previously described (Unemori et al. (1996) J. Clin. Invest. 98:2739-2745).
A general note: In an ELISA, binding on a coated surface is turned into a signal by an enzyme label.

For “Porcine RLX: lyophilized, purified porcine relaxin (Sherwood and O'Byrne 1974), dissolved in Ringer's solution”, the ERPF with conscious rats (ANG II 3 ng/min i.v., 60 min) is on record as 8926; in the data set on conscious rats (ANG II 3 ng/min i.v., 120 min) it was 9646; in the data set on conscious rats (ANG II 3 ng/min i.v., 180 min) it was 7738; in the data set on conscious rats (ANG II 3 ng/min i.v., 240 min), 7698; in the data set on conscious rats (Baseline before ANG II), 10364. For the same substance, the ERVR worked out at 8.88 in the data set with conscious rats (ANG II 3 ng/min i.v., 60 min); 9.24 in the data set with conscious rats (ANG II 3 ng/min i.v., 120 min); 11.52 in the data set with conscious rats (ANG II 3 ng/min i.v., 180 min); 11.84 with conscious rats (ANG II 3 ng/min i.v., 240 min); 6.23 with conscious rats (Baseline before ANG II). Besides, the GFR is recorded as 2980 in the data set with conscious rats (ANG II 3 ng/min i.v., 60 min); 2653 in the data set on conscious rats (ANG II 3 ng/min i.v., 120 min); 2578 with conscious rats (ANG II 3 ng/min i.v., 180 min); 2763 in the data set on conscious rats (ANG II 3 ng/min i.v., 240 min); 2929 in the data set with conscious rats (Baseline before ANG II). The MAP turned out to be 130 in the data set on conscious rats (ANG II 3 ng/min i.v., 60 min); 142 in the data set on conscious rats (ANG II 3 ng/min i.v., 120 min); 143 in the data set with conscious rats (ANG II 3 ng/min i.v., 180 min); 146 in the data set on conscious rats (ANG II 3 ng/min i.v., 240 min); 111 in the data set on conscious rats (Baseline before ANG II). Moreover, in the data set with conscious rats (RLX treated vs vehicle infused rats), the “percent increase in MAP and reduction in GFR elicited by ANG II” value is on record as “comparable”. The “percent increase in ERVR and reduction in ERPF elicited by ANG II” value in the data set on conscious rats (chronic relaxin vs vehicle) is given as “markedly attenuated”.

Consider “rhRLX: recombinant human relaxin, identical in amino acid sequence to the product of the human H2 gene; A chain of 24, B chain of 29 amino acids”, for which, in data set [1], the 3H-thymidine uptake entry was “did not alter”. In addition, in the data set on db/db mice (0.2 mg/kg/day, day 14), the “Wound closure, % of original wound area” value worked out at 64%. The “staining for von Willebrand factor VIII-related antigen (new blood vessels)” value in the data set on db/db mice (compared to wounds of vehicle treated animals) was “stronger positive staining”. In addition, the “wound histology, Masson's trichrome” value with db/db mice (day 21-post surgery) is “thick, cellular and vascular granulation tissue”. Besides, the “differences in the extent of wound healing vs vehicle control” value in the data set on db/db mice (low dose of rhRlx (0.1 mg/kg/day)) is “small”. For the same substance, the rRlx serum levels in data set [2] (1 mg-air (low rhRlx-air)) came out at 2.9 ± 1.0 ng/mL; in data set [2] (1 mg-hyp (low rhRlx-hyp)) it was 3.2 ± 0.4 ng/mL; in data set [2] (5 mg-air (hi rhRlx-air)), 9.9 ± 2.8 ng/mL; in data set [2] (5 mg-hyp (hi rhRlx-hyp)), 11.5 ± 2.5 ng/mL.
